Each structure is given as a SMILES string.

Data set [1] is described as follows: logP determination by HPLC on a reversed-phase column (C18), EEC Directive 79/831 Annex V.A8. As to conditions: for log P: HPLC-MS, reversed-phase column (C18); for logP^a): HPLC-MS method a), Table I-T3. It is filed as physicochemical.
Another data set concerns Rhipicephalus sanguineus. As to the kind of experiment: Rhipicephalus sanguineus - in vitro contact tests with adult brown dog ticks. It is filed as in vivo. The essentials: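 Test compound was dissolved in acetone p.a. (9 mg in 1 ml, then diluted), and 250 μl were spread evenly over the inner surface of 25 ml test tubes on an orbital shaker at 30 rpm for 2 h. Once the solvent evaporated, 5-10 adult Rhipicephalus sanguineus ticks were sealed in, kept dark at room temperature, and after 48 h placed on a 45-50° C. hotplate to score dead or moribund ticks.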

Data set [2] relates to Ctenocephalides felis. Kind of data set: Ctenocephalides felis - in vitro contact tests with adult cat fleas. The format is in vivo. As to conditions: application rate 5 μg/cm^2 (=500 g/ha), after 48 h (dead or moribund). In short, it runs like this:
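Efficacy, as share of dead or moribund adult Ctenocephalides felis, read 48 h after placing 5-10 fleas in tubes coated by acetone solution (5 μg/cm^2 at 900 ppm). Incubation horizontal at room temperature, ambient humidity; immobile or uncoordinated fleas scored.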

The test system of a further data set is Amblyomma hebraeum. As to the kind of experiment: Amblyomma hebraeum test (tick nymphs, immersion). The format is in vivo. To be noted: application rate 100 ppm; tick nymphs immersed for one minute; kill after 42 days. The procedure: Solvent: dimethyl sulphoxide
To produce an appropriate active ingredient formulation, 10 mg of active ingredient are mixed with 0.5 ml of dimethyl sulphoxide, and the concentrate is diluted with water to the desired concentration.
Tick nymphs (Amblyomma hebraeum) are placed into perforated plastic beakers and immersed in the desired concentration for one minute. The ticks are transferred on filter paper into a Petri dish and stored in a climate-controlled cabinet.
After 42 days, the kill in % is determined. 100% means that all of the ticks have been killed; 0% means that none of the ticks have been killed.

In a further data set the test system is Boophilus microplus. Kind of data set: Boophilus microplus - injection test. The format is in vivo. As to conditions: application rate 20 μg/animal; injected into engorged adult female ticks; laying of fertile eggs, after 7 days. In short, it runs like this:
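Read-out is % efficacy from fertile egg laying at 7 days: 100% means no tick laid fertile eggs, 0% means all eggs fertile. Each of 5 engorged adult females received 1 μl of DMSO test solution injected abdominally.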

The subject of data set [3] is Boophilus microplus Parkhurst strain, SP-resistant. Kind of data set: Boophilus microplus - dip test. The format is in vivo. To be noted: application rate 100 ppm; dip of engorged adult female ticks; laying of fertile eggs, after 7 days. The essentials:
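Efficacy reflects suppression of fertile egg laying: 0% means all eggs fertile, 100% none, read at 7 days, doubtful eggs kept ~42 days for larval hatch. Treatment was a complete dip of 8–10 engorged adult female ticks (SP-resistant Parkhurst strain) in a water dilution of a DMSO stock.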

Data set [4] deals with Ctenocephalides felis. As to the kind of experiment: Ctenocephalides felis - oral test. The format is in vivo. To be noted: application rate 100 ppm in citrated cattle blood; adult fleas; kill after 2 days. The essentials:
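DMSO stock, diluted in citrated cattle blood; ~20 unfed adult fleas feed through parafilm; % kill read at day 2 (0% = none killed).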

For the next data set, the system named is Lucilia cuprina. Kind of data set: Lucilia cuprina test. The format is in vivo. As to conditions: application rate 100 ppm; L1 larvae in minced horsemeat; kill after 2 days. In short, it runs like this: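 Mortality (%) of first-instar blowfly larvae, about 20 per vessel, recorded 2 days after exposure to compound-treated minced horsemeat. Compound dissolved in dimethyl sulphoxide, then water-diluted to the desired concentration.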

The test system of a further data set is Musca domestica. As to the kind of experiment: Musca domestica test. As to conditions: application rate 100 ppm; adult houseflies; kill after 2 days. It is filed as in vivo. The essentials: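 10 adult flies per vessel; sugar-solution sponge dosed with active ingredient formulation (DMSO concentrate diluted in water to desired concentration). Read-out: % kill at 2 days.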

Setting [5] is: application rate 5 μg/cm^2, after 48 h (dead or moribund).
Setting [6] is: application rate 1 μg/cm^2, after 48 h (dead or moribund).

Turning to `Cc1cc(C(F)(C(F)(F)F)C(F)(F)F)cc(C(F)(F)F)c1-n1cc(-c2cnc(C)c(C(=O)NC3CC3)c2)cn1` [I-T3-117], the log partition coefficient (log P) (commonly the decadic logarithm of the partition coefficient of the neutral form, usually between octanol and water) in [1] is 3.5. In addition, the efficacy (with Rhipicephalus sanguineus (setting [5]); in the data set on Ctenocephalides felis [2]; in the data set on Amblyomma hebraeum; with Boophilus microplus; in data set [3]; in the data set with Ctenocephalides felis [4]) was 100% each time. Moreover, the efficacy with Lucilia cuprina and with Musca domestica was 100% throughout.
As for `Cc1cc(C(F)(C(F)(F)F)C(F)(F)F)cc(C)c1-n1cc(-c2cnc(Cl)c(C(=O)NC3(C#N)CC3)c2)cn1` [I-T3-21], in [1], the “logP^a)” value is recorded as 3.7. Also, the efficacy (in the data set on Rhipicephalus sanguineus (setting [5]); with Ctenocephalides felis [2]; with Amblyomma hebraeum; in the data set with Boophilus microplus; in [3]; with Ctenocephalides felis [4]) was 100% throughout. In addition, the efficacy in the data set on Lucilia cuprina and in the data set on Musca domestica was 100% in each case.
As for `CCc1cc(C(F)(C(F)(F)F)C(F)(F)F)cc(C)c1-n1cc(-c2cnc(Cl)c(C(=O)NC3(C#N)CC3)c2)cn1` [I-T3-110], the log partition coefficient (log P) in data set [1] is on record as 4.1. Besides, the efficacy (with Rhipicephalus sanguineus (setting [5]); in the data set with Ctenocephalides felis [2]; in the data set on Amblyomma hebraeum; in the data set on Boophilus microplus; in data set [3]; with Ctenocephalides felis [4]) was 100% in each case. Also, the efficacy in the data set with Lucilia cuprina and in the data set with Musca domestica was 100% each time.
For `Cc1cc(C(F)(C(F)(F)F)C(F)(F)F)cc(C(F)(F)F)c1-n1cc(-c2cnc(C)c(C(=O)N(C)C3(C#N)CC3)c2)cn1` [I-T3-123], the lipophilicity (log P) in [1] amounted to 3.9. Also, the efficacy in the data set with Rhipicephalus sanguineus (setting [6]) turned out to be 80%; in the data set on Ctenocephalides felis [2], 100%; in the data set on Amblyomma hebraeum, 80%; in the data set on Boophilus microplus it was 100%; in data set [3] it was 100%; in the data set with Ctenocephalides felis [4], 100%. Moreover, the efficacy in the data set on Lucilia cuprina and in the data set with Musca domestica was 100% each time.
As for `O=C(NC1CC1)c1cc(-c2cnn(-c3c(F)cc(C(F)(C(F)(F)F)C(F)(F)F)cc3F)c2)ccc1Cl` [I-T3-61], the “logP^a)” value in data set [1] came out at 4.0. Moreover, the efficacy with Rhipicephalus sanguineus (setting [5]) is 100%; in the data set on Ctenocephalides felis [2] it was 100%; in the data set with Amblyomma hebraeum, 80%; with Boophilus microplus, 100%; in data set [3], 100%; in the data set on Ctenocephalides felis [4], 100%. Besides, the efficacy in the data set on Lucilia cuprina and in the data set with Musca domestica was 100% throughout.
As for `O=C(NC1CC1)c1cc(-c2cnn(-c3c(Cl)cc(C(F)(F)F)cc3Cl)c2)cnc1Cl` [I-T3-98], the lipophilicity (log P) in data set [1] amounted to 3.1. The efficacy (in the data set with Rhipicephalus sanguineus (setting [5]); with Ctenocephalides felis [2]; in the data set with Amblyomma hebraeum; with Boophilus microplus; in [3]; in the data set with Ctenocephalides felis [4]) was 100% in each case. Further, the values for the efficacy with Lucilia cuprina and with Musca domestica were 100% and 90%, respectively.
On to `CCc1cc(C(F)(F)C(F)(F)F)cc(C)c1-n1cc(-c2ccc(Cl)c(C(=O)NC3CC3)c2)cn1` [I-T3-81], for which, in [1], the “logP^a)” value came to 4.3. For the same compound, the efficacy (in the data set on Rhipicephalus sanguineus (setting [5]); with Ctenocephalides felis [2]; in the data set on Amblyomma hebraeum; with Boophilus microplus; in data set [3]; with Ctenocephalides felis [4]) was 100% in each case. Moreover, the efficacy amounted to 100% in the data set with Lucilia cuprina and 90% in the data set with Musca domestica.
Turning to `Cc1cc(C(F)(C(F)(F)F)C(F)(F)F)cc(C(F)(F)F)c1-n1cc(-c2cnc(Cl)c(C(=O)NC3(C#N)CC3)c2)cn1` [I-T3-108], in [1], the “log P” value was 4.0. For the same compound, the efficacy (in the data set with Rhipicephalus sanguineus (setting [6]); with Ctenocephalides felis [2]; in the data set on Amblyomma hebraeum; in the data set with Boophilus microplus; in data set [3]; in the data set on Ctenocephalides felis [4]) was 100% throughout. Moreover, the efficacy in the data set with Lucilia cuprina and with Musca domestica was 100% each time.
As to `CCc1cc(C(F)(C(F)(F)F)C(F)(F)F)cc(Cl)c1-n1cc(-c2ccc(Cl)c(C(=O)NC3(C#N)CC3)c2)cn1` [I-T3-71], the “logP^a)” value in data set [1] was 4.5. The efficacy (in the data set with Rhipicephalus sanguineus (setting [5]); in the data set on Ctenocephalides felis [2]; in the data set on Amblyomma hebraeum; in the data set on Boophilus microplus; in [3]; in the data set on Ctenocephalides felis [4]) was 100% in each case. In addition, the efficacy in the data set with Lucilia cuprina and in the data set on Musca domestica was 100% in each case.
For the compound `O=C(NC1CC1)c1cc(-c2cnn(-c3c(Cl)cc(C(F)(C(F)(F)F)C(F)(F)F)cc3C(F)(F)F)c2)cnc1Cl` [I-T3-112], in [1], the lipophilicity (log P) is 4.0. Moreover, the efficacy (in the data set on Rhipicephalus sanguineus (setting [5]); with Ctenocephalides felis [2]; in the data set on Amblyomma hebraeum; in the data set with Boophilus microplus; in [3]; with Ctenocephalides felis [4]) was 100% throughout. The efficacy with Lucilia cuprina and in the data set with Musca domestica was 100% throughout.
As to `Cc1cc(C(F)(C(F)(F)F)C(F)(F)F)cc(C)c1-n1cc(-c2cnc(C)c(C(=O)NC3(C#N)CC3)c2)cn1` [I-T3-97], the log partition coefficient (log P) in data set [1] was 3.4. Moreover, the efficacy (with Rhipicephalus sanguineus (setting [5]); in the data set with Ctenocephalides felis [2]; in the data set with Amblyomma hebraeum; in the data set with Boophilus microplus; in data set [3]; in the data set with Ctenocephalides felis [4]) was 100% throughout. The efficacy with Lucilia cuprina and in the data set on Musca domestica was 100% each time.
On to `CCc1cc(C(F)(C(F)(F)F)C(F)(F)F)cc(C)c1-n1cc(-c2cnc(Cl)c(C(=O)NC3CC3)c2)cn1` [I-T3-109], for which, in data set [1], the “log P” value turned out to be 4.2. For the same compound, the efficacy (in the data set on Rhipicephalus sanguineus (setting [5]); with Ctenocephalides felis [2]; in the data set on Amblyomma hebraeum; with Boophilus microplus; in data set [3]; in the data set on Ctenocephalides felis [4]) was 100% each time. Besides, the efficacy with Lucilia cuprina and in the data set with Musca domestica was 100% throughout.
On to `Cc1cc(C(F)(C(F)(F)F)C(F)(F)F)cc(C(F)(F)F)c1-n1cc(-c2ccc(Cl)c(C(=O)NC3CC3)c2)cn1` [I-T3-54], for which, in data set [1], the “logP^a)” value is 4.4. Besides, the efficacy (in the data set with Rhipicephalus sanguineus (setting [5]); with Ctenocephalides felis [2]; in the data set on Amblyomma hebraeum; in the data set on Boophilus microplus; in [3]; with Ctenocephalides felis [4]) was 100% each time. The efficacy with Lucilia cuprina and in the data set with Musca domestica was 100% in each case.
Turning to `Cc1cc(C(F)(C(F)(F)F)C(F)(F)F)cc(C)c1-c1cc(-c2ccc(Cl)c(C(=O)NC3(C#N)CC3)c2)on1` [I-T22-2], the logP (in general, a log measure of how a compound divides between an organic and an aqueous phase) in [1] (HPLC, reversed-phase C18, acetonitrile/water with formic acid, 55° C.) came to 4.6. Also, the efficacy (with Rhipicephalus sanguineus (setting [5]); in the data set on Ctenocephalides felis [2]; in the data set on Amblyomma hebraeum; in the data set with Boophilus microplus; in data set [3]; in the data set on Ctenocephalides felis [4]) was 100% in each case. Moreover, the efficacy in the data set on Lucilia cuprina and in the data set on Musca domestica was 100% each time.
With `N#CC1(NC(=O)c2cc(-c3cnn(-c4c(Cl)cc(C(F)(C(F)(F)F)C(F)(F)F)cc4OC(F)(F)F)c3)ccc2Cl)CC1` [I-T3-163], in data set [1], the “log P” value was 4.5. Also, the efficacy (with Rhipicephalus sanguineus (setting [5]); in the data set with Ctenocephalides felis [2]; with Amblyomma hebraeum; in the data set on Boophilus microplus; in data set [3]; with Ctenocephalides felis [4]) was 100% in each case. Besides, the efficacy with Lucilia cuprina and in the data set on Musca domestica was 100% each time.

These data come from patent US9758485B2, “Compounds for controlling arthropods” (priority 2013, dated 2017).
